According to ChEMBL document CHEMBL1201862, “PubChem BioAssay data set” (2004):
The source made the active and inactive calls.

What was measured:
HeLa = test: HeLa cell cytotoxicity, dose response, cytotoxicity control for MITF activator project, CellTiter-Glo luminescence, cherry-pick samples (AID 540259); assay type: functional, cell-based; settings: Homo sapiens
[1] = Luminescence Cell-Based Dose Response HTS to Identify Activators of Luciferase Translation or Activity in H4 […] Cells. [Related pubchem assays: 1829 (Project Summary), 1814 (Primary HTS)]; assay type: functional
[2] = target: T1, Oxysterols receptor LXR-beta (Homo sapiens, UniProt P55055); assay type: functional, cell-based;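 note: agonist activity at LXR measured by a cell-based luminescence readout across a dose range, run as a counterscreen for daf-12 agonists; HEK293 cells with Gal4-LXR fusion and GAL4-driven luciferase reporter; potency for activation of Gal4-LXR reporter so compounds are agonists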
T1 sequence (P55055 whole entry): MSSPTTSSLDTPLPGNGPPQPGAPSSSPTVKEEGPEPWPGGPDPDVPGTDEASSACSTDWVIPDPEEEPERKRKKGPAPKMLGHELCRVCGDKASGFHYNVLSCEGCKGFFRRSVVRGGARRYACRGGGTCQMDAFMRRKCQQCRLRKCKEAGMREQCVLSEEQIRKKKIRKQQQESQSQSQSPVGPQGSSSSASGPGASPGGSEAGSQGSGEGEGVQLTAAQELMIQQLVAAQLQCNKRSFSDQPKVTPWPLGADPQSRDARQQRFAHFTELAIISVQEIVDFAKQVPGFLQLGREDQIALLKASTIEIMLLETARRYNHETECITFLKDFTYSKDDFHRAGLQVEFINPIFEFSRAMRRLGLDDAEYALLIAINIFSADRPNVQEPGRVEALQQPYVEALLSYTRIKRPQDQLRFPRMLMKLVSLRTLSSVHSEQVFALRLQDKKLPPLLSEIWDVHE

Escherichia coli [3] = test: microbe, parasite or virus in culture
Escherichia coli [4] = test: microbe, parasite or virus in culture; remark: listed apart in the source
[5] = microbe, parasite or virus in culture; assay type: functional; settings: Mycobacterium tuberculosis

Row | SMILES | AC50 (HeLa) | EC50 [1] | EC50 [2] | AC50 (Escherichia coli [3]) | AC50 (Escherichia coli [4]) | CC50 [5]
1 | c1ccc2nc(-c3nccs3)ccc2c1 | 57.5 µM (active) |  |  |  |  | 
2 | COc1ccc(/C=C2\SC(=O)N(CCNC(=O)C3CC4C=CC3C4)C2=O)cc1 (stereo not drawn) |  | 0.164 µM (active) | > 67.5 µM (inactive) | 23.7 µM (active) | > 380 µM (inactive) | 
3 | CCCc1ccc2oc(C(=O)N(C)Cc3nccs3)c(C)c2c1 |  |  |  | 31.7 µM (active) | > 380 µM (inactive) | 21.8 µM (active)
